Laboratory results taken from ChEMBL document CHEMBL1140580, “Synthesis and characterization of trans-4-(4-chlorophenyl)pyrrolidine-3-carboxamides of piperazinecyclohexanes as ligands for the melanocortin-4 receptor” (Bioorg Med Chem Lett, 2007).
pEC50, pKi: −log10 of the molar value.

What was measured:
Melanocortin receptor 4 [1] = target: T1, Melanocortin receptor 4 (Homo sapiens, UniProt P32245); assay: Displacement of […]NDPMSH from human MC4R expressed in HEK293 cells; format: cell-based
Melanocortin receptor 4 [2] = target: T1, Melanocortin receptor 4; assay: Agonist activity at MC4R assessed as stimulation of cAMP release; format: functional
Melanocortin receptor 4 [3] = target: T1, Melanocortin receptor 4; assay: Agonist activity at MC4R assessed as stimulation of cAMP release relative to alphaMSH; format: functional

T1 sequence (P32245 whole entry): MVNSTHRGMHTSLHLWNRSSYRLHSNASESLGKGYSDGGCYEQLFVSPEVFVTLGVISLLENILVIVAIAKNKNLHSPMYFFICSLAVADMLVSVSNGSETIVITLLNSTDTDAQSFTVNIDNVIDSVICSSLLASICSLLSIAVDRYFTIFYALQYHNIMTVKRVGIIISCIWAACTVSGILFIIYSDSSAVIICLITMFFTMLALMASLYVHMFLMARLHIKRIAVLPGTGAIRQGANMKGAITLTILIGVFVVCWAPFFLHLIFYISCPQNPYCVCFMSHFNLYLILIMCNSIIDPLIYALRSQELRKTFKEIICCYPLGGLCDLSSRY

SMILES	pKi (Melanocortin receptor 4 [1])	pEC50 (Melanocortin receptor 4 [2])	Intrinsic activity (Melanocortin receptor 4 [3]) [%]
CC(C)N1C[C@H](C(=O)N2CCN(C3(CNCCc4ccccn4)CCCCC3)CC2)[C@@H](c2ccc(Cl)cc2)C1	6.16	–	–
CC(C)N1C[C@H](C(=O)N2CCN(C3(CNCc4ccccc4)CCCCC3)CC2)[C@@H](c2ccc(Cl)cc2)C1	7.59	5.96	31
CC(C)N1C[C@H](C(=O)N2CCN(C3(CNCc4nccn4C)CCCCC3)CC2)[C@@H](c2ccc(Cl)cc2)C1	6.41	–	31
CC(C)N1C[C@H](C(=O)N2CCN(C3(CNCc4nccs4)CCCCC3)CC2)[C@@H](c2ccc(Cl)cc2)C1	6.89	6.13	72
CC(=O)N1C[C@H](C(=O)N2CCN(C3(CNCc4ccncc4)CCCCC3)CC2)[C@@H](c2ccc(Cl)cc2)C1	5.52	–	–
CC(C)CN(Cc1ccncc1)CC1(N2CCN(C(=O)[C@H]3CN(C(C)C)C[C@@H]3c3ccc(Cl)cc3)CC2)CCCCC1	5.57	–	–
CC(C)Oc1ccc(CNCC2(N3CCN(C(=O)[C@H]4CN(C(C)C)C[C@@H]4c4ccc(Cl)cc4)CC3)CCCCC2)cc1	8.68	–	6
COc1ccccc1CNCC1(N2CCN(C(=O)[C@H]3CN(C(C)C)C[C@@H]3c3ccc(Cl)cc3)CC2)CCCCC1	7.21	6.00	48
NCCC(=O)N1C[C@H](C(=O)N2CCN(C3(CNCc4ccccc4)CCCCC3)CC2)[C@@H](c2ccc(Cl)cc2)C1	6.96	–	9
CCCC(=O)N1C[C@H](C(=O)N2CCN(C3(CNCc4ccccc4)CCCCC3)CC2)[C@@H](c2ccc(Cl)cc2)C1	6.72	–	8
CC(C)N1C[C@H](C(=O)N2CCN(C3(CNCc4cccs4)CCCCC3)CC2)[C@@H](c2ccc(Cl)cc2)C1	7.43	6.23	58
CCNC(=O)N1C[C@H](C(=O)N2CCN(C3(CNCc4ccncc4)CCCCC3)CC2)[C@@H](c2ccc(Cl)cc2)C1	5.34	–	–
CC(C)N1C[C@H](C(=O)N2CCN(C3(CN)CCCCC3)CC2)[C@@H](c2ccc(Cl)cc2)C1	5.92	–	–
CC(C)C(=O)N1C[C@H](C(=O)N2CCN(C3(CNCc4ccccc4)CCCCC3)CC2)[C@@H](c2ccc(Cl)cc2)C1	6.68	–	47
CC(C)N1C[C@H](C(=O)N2CCN(C3(CNCc4ccc5c(c4)OCO5)CCCCC3)CC2)[C@@H](c2ccc(Cl)cc2)C1	8.08	–	7
CC(C)N1C[C@H](C(=O)N2CCN(C3(CNCc4ccco4)CCCCC3)CC2)[C@@H](c2ccc(Cl)cc2)C1	7.42	6.24	32

SMILES	pKi (Melanocortin receptor 4 [1])	pEC50 (Melanocortin receptor 4 [2])	Intrinsic activity (Melanocortin receptor 4 [3]) [%]
COC(=O)c1ccc(CNCC2(N3CCN(C(=O)[C@H]4CN(C(C)C)C[C@@H]4c4ccc(Cl)cc4)CC3)CCCCC2)cc1	7.49	–	21
O=C([C@H]1CN(C2CCCC2)C[C@@H]1c1ccc(Cl)cc1)N1CCN(C2(CNCc3ccccc3)CCCCC2)CC1	7.77	5.74	33
COc1ccc(CNCC2(N3CCN(C(=O)[C@H]4CN(C(C)C)C[C@@H]4c4ccc(Cl)cc4)CC3)CCCCC2)c(OC)c1	7.80	–	29
CC(C)N1C[C@H](C(=O)N2CCN(C3(CNCc4ccccc4Cl)CCCCC3)CC2)[C@@H](c2ccc(Cl)cc2)C1	7.60	5.89	75
CC(C)N1C[C@H](C(=O)N2CCN(C3(CNCc4ccc(C(F)(F)F)cc4)CCCCC3)CC2)[C@@H](c2ccc(Cl)cc2)C1	6.89	–	16
CC(=O)N(Cc1ccncc1)CC1(N2CCN(C(=O)[C@H]3CN(C(C)C)C[C@@H]3c3ccc(Cl)cc3)CC2)CCCCC1	5.82	–	–
COCC(C)NCC1(N2CCN(C(=O)[C@H]3CN(C(C)C)C[C@@H]3c3ccc(Cl)cc3)CC2)CCCCC1 (stereo not given in full)	6.51	–	–
CC(C)N1C[C@H](C(=O)N2CCN(C3(CNCc4ccc(F)cc4F)CCCCC3)CC2)[C@@H](c2ccc(Cl)cc2)C1	7.96	5.89	27
COc1ccc(CN(CC(C)C)CC2(N3CCN(C(=O)[C@H]4CN(C(C)C)C[C@@H]4c4ccc(Cl)cc4)CC3)CCCCC2)cc1	5.74	–	–
CNCC(=O)N1C[C@H](C(=O)N2CCN(C3(CNCc4ccccc4)CCCCC3)CC2)[C@@H](c2ccc(Cl)cc2)C1	7.00	–	8
CCC(=O)N1C[C@H](C(=O)N2CCN(C3(CNCc4ccncc4)CCCCC3)CC2)[C@@H](c2ccc(Cl)cc2)C1	5.51	–	–
COc1ccc(CN(CC2(N3CCN(C(=O)[C@H]4CN(C(C)C)C[C@@H]4c4ccc(Cl)cc4)CC3)CCCCC2)OC)cc1	5.89	–	–
CC(C)N1C[C@H](C(=O)N2CCN(C3(CNCc4cccnc4)CCCCC3)CC2)[C@@H](c2ccc(Cl)cc2)C1	7.46	6.41	72
CCN(Cc1ccncc1)CC1(N2CCN(C(=O)[C@H]3CN(C(C)C)C[C@@H]3c3ccc(Cl)cc3)CC2)CCCCC1	5.89	–	–
CC(C)N1C[C@H](C(=O)N2CCN(C3(CNS(=O)(=O)c4ccccc4)CCCCC3)CC2)[C@@H](c2ccc(Cl)cc2)C1	6.48	–	20
O=C(C1CCCC1)N1C[C@H](C(=O)N2CCN(C3(CNCc4ccccc4)CCCCC3)CC2)[C@@H](c2ccc(Cl)cc2)C1	6.74	–	26

The remaining compounds from weak to strong by pKi (Melanocortin receptor 4 [1]), led by results:

pKi (Melanocortin receptor 4 [1])	pEC50 (Melanocortin receptor 4 [2])	Intrinsic activity (Melanocortin receptor 4 [3]) [%]	SMILES
5.47	–	–	CS(=O)(=O)N1C[C@H](C(=O)N2CCN(C3(CNCc4ccncc4)CCCCC3)CC2)[C@@H](c2ccc(Cl)cc2)C1
5.55	–	–	COc1ccc(CN(Cc2ccc(OC)cc2)CC2(N3CCN(C(=O)[C@H]4CN(C(C)C)C[C@@H]4c4ccc(Cl)cc4)CC3)CCCCC2)cc1
5.66	–	–	O=C([C@H]1CNC[C@@H]1c1ccc(Cl)cc1)N1CCN(C2(CNCc3ccncc3)CCCCC2)CC1
5.92	–	–	CC(C)N1C[C@H](C(=O)N2CCN(C3(CNCc4cc5ccccc5n4C)CCCCC3)CC2)[C@@H](c2ccc(Cl)cc2)C1
6.12	–	–	CC(C)N1C[C@H](C(=O)N2CCN(C3(CN(C)Cc4ccncc4)CCCCC3)CC2)[C@@H](c2ccc(Cl)cc2)C1
6.17	–	0	CC(C)C(N)C(=O)N1C[C@H](C(=O)N2CCN(C3(CNCc4ccccc4)CCCCC3)CC2)[C@@H](c2ccc(Cl)cc2)C1 (stereo not given in full)
6.29	–	–	CC(C)N1C[C@H](C(=O)N2CCN(C3(CNC(=O)Cc4ccccc4)CCCCC3)CC2)[C@@H](c2ccc(Cl)cc2)C1
6.37	–	3	CC(N)C(=O)N1C[C@H](C(=O)N2CCN(C3(CNCc4ccccc4)CCCCC3)CC2)[C@@H](c2ccc(Cl)cc2)C1 (stereo not given in full)
6.47	–	40	CC(C)N1C[C@H](C(=O)N2CCN(C3(CNS(=O)(=O)Cc4ccccc4)CCCCC3)CC2)[C@@H](c2ccc(Cl)cc2)C1
6.52	–	–	CC(C)N1C[C@H](C(=O)N2CCN(C3(CNCC4CCCCC4)CCCCC3)CC2)[C@@H](c2ccc(Cl)cc2)C1
6.66	6.66	66	CC(C)N1C[C@H](C(=O)N2CCN(C3(CNCc4cncnc4)CCCCC3)CC2)[C@@H](c2ccc(Cl)cc2)C1
6.66	6.96	49	CC(C)N1C[C@H](C(=O)N2CCN(C3(CNCc4c[nH]cn4)CCCCC3)CC2)[C@@H](c2ccc(Cl)cc2)C1
6.68	–	19	CCC(=O)N1C[C@H](C(=O)N2CCN(C3(CNCc4ccccc4)CCCCC3)CC2)[C@@H](c2ccc(Cl)cc2)C1
6.70	–	–	O=C([C@H]1CN(Cc2ccccc2)C[C@@H]1c1ccc(Cl)cc1)N1CCN(C2(CNCc3ccncc3)CCCCC2)CC1
6.72	–	13	CC(=O)N1C[C@H](C(=O)N2CCN(C3(CNCc4ccccc4)CCCCC3)CC2)[C@@H](c2ccc(Cl)cc2)C1
6.72	–	–	CCN(Cc1ccc(OC)cc1)CC1(N2CCN(C(=O)[C@H]3CN(C(C)C)C[C@@H]3c3ccc(Cl)cc3)CC2)CCCCC1
6.85	–	–	CC(C)N1C[C@H](C(=O)N2CCN(C3(CNCc4ccccc4C(F)(F)F)CCCCC3)CC2)[C@@H](c2ccc(Cl)cc2)C1
6.85	–	1	O=C([C@H]1CN(Cc2ccccc2)C[C@@H]1c1ccc(Cl)cc1)N1CCN(C2(CNCc3ccccc3)CCCCC2)CC1
6.96	–	–	CC(C)N1C[C@H](C(=O)N2CCN(C3(CNCc4ccccc4OC(F)(F)F)CCCCC3)CC2)[C@@H](c2ccc(Cl)cc2)C1
6.96	–	–	COc1ccc(CN(C)CC2(N3CCN(C(=O)[C@H]4CN(C(C)C)C[C@@H]4c4ccc(Cl)cc4)CC3)CCCCC2)cc1
7.00	–	7	COCC(C)N1C[C@H](C(=O)N2CCN(C3(CNCc4ccccc4)CCCCC3)CC2)[C@@H](c2ccc(Cl)cc2)C1 (stereo not given in full)
7.12	5.92	34	CC(C)N1C[C@H](C(=O)N2CCN(C3(CNCc4ccccn4)CCCCC3)CC2)[C@@H](c2ccc(Cl)cc2)C1
7.12	6.32	53	CC(C)N1C[C@H](C(=O)N2CCN(C3(CNCc4ccoc4)CCCCC3)CC2)[C@@H](c2ccc(Cl)cc2)C1
7.19	5.96	16	CC(C)N1C[C@H](C(=O)N2CCN(C3(CNCc4ccc(N(C)C)cc4)CCCCC3)CC2)[C@@H](c2ccc(Cl)cc2)C1
7.28	–	–	CC(C)N1C[C@H](C(=O)N2CCN(C3(CNCc4ccc([N+](=O)[O-])cc4)CCCCC3)CC2)[C@@H](c2ccc(Cl)cc2)C1
7.52	5.92	39	COc1cccc(CNCC2(N3CCN(C(=O)[C@H]4CN(C(C)C)C[C@@H]4c4ccc(Cl)cc4)CC3)CCCCC2)c1
7.54	6.00	70	O=C([C@H]1CN(C2CCOCC2)C[C@@H]1c1ccc(Cl)cc1)N1CCN(C2(CNCc3ccccc3)CCCCC2)CC1
7.57	–	–	CSc1ccc(CNCC2(N3CCN(C(=O)[C@H]4CN(C(C)C)C[C@@H]4c4ccc(Cl)cc4)CC3)CCCCC2)cc1
7.62	–	23	CC(C)N1C[C@H](C(=O)N2CCN(C3(CNCc4cccc(F)c4)CCCCC3)CC2)[C@@H](c2ccc(Cl)cc2)C1
8.44	–	17	COc1ccc(CNCC2(N3CCN(C(=O)[C@H]4CN(C(C)C)C[C@@H]4c4ccc(Cl)cc4)CC3)CCCCC2)cc1
